Activity calls are given as the source filed them. The rule behind the calls is not given here.
Target: Signal transducer and activator of transcription 1-alpha/beta (Homo sapiens) (UniProt P42224)
Test: STAT1 reporter inhibitors, potency curves, dose response, counter-screen for STAT3 inhibitor project, cell-based, NIH 3T3, luciferase reporter (AID 1411)
Settings: NIH 3T3 fibroblasts, counterscreen

Sequence of Signal transducer and activator of transcription 1-alpha/beta (Homo sapiens) (P42224 whole entry, looked up): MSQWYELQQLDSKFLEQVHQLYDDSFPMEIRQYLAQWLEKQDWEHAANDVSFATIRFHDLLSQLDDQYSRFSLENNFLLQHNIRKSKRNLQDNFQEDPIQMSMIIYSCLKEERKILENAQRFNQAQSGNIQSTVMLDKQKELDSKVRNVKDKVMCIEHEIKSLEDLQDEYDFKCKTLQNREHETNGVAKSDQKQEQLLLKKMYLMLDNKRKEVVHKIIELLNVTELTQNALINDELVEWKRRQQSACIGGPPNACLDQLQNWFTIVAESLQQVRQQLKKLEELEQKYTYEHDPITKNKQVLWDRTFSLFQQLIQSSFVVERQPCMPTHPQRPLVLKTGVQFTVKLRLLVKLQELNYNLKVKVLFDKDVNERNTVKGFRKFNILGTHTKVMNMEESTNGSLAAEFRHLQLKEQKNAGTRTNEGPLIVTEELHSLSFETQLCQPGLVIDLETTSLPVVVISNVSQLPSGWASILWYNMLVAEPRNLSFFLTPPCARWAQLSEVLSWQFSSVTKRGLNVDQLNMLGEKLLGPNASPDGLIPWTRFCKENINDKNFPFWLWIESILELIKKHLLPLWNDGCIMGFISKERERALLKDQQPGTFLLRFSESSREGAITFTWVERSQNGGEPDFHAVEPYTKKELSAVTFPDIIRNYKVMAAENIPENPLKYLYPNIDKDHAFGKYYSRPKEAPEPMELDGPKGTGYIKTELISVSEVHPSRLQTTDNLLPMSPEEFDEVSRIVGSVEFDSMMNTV

Question: For O=C(Nc1cccc(S(=O)(=O)Nc2ccccc2Cl)c1)c1ccc(Cl)nc1, which IC50 is on record?
Answer: Its IC50 is > 55.7 µM (inactive).

Question: For C[C@H]1O[C@@H](O[C@H]2[C@@H](O)C[C@H](O[C@H]3[C@@H](O)C[C@H](O[C@H]4CC[C@@]5(C)[C@H](CC[C@@H]6[C@@H]5CC[C@]5(C)[C@@H](C7=CC(=O)OC7)CC[C@]65O)C4)O[C@@H]3C)O[C@@H]2C)C[C@H](O)[C@@H]1O, which IC50 is on record?
Answer: The IC50 was > 55.7 µM (inactive).

Question: COc1ccc2cc(-c3cc(C(=O)OCC(=O)Nc4c(C)n(C)n(-c5ccccc5)c4=O)c4ccccc4n3)ccc2c1 was tested. Which IC50 did it give?
Answer: The IC50 was “inactive”.

Question: Which IC50 does the source give for Cc1ccc(S(=O)(=O)N(C)c2ccc(C(=O)N3CCN(Cc4ccc5c(c4)OCO5)CC3)cc2)cc1 here?
Answer: The IC50 was > 55.7 µM (inactive).

Question: For COc1ccc(C(=O)Nc2ccc3oc(Cc4ccc(Cl)cc4)nc3c2)cc1OC, which IC50 is on record?
Answer: Its IC50 is > 55.7 µM (inactive).

Question: Which IC50 does the source give for CCOC(=O)c1oc2ccc(S(=O)(=O)Nc3ccc4c(c3)n(C)c(=O)n4C)cc2c1C here?
Answer: Its IC50 is “inactive”.

Question: With Clc1ccc(OCc2cc(-c3ccccc3)no2)c(Cl)c1 as the molecule, how does the IC50 read?
Answer: The IC50 was “inactive”.

Question: How did the IC50 turn out when C[C@@H]1O[C@@H](O[C@H]2C[C@@H](O)[C@]3(CO)[C@H]4[C@H](O)C[C@]5(C)[C@@H](C6=CC(=O)OC6)CC[C@]5(O)[C@@H]4CC[C@]3(O)C2)[C@H](O)[C@H](O)[C@H]1O was run?
Answer: Its IC50 is > 55.7 µM (inactive).

Question: For CCCOc1ccc(CSc2nc3ccccc3[nH]2)cc1, which IC50 is on record?
Answer: Its IC50 is > 55.7 µM (inactive).

Question: With O=C(Nc1nccs1)c1ccc(S(=O)(=O)NCC2CCCCC2)cc1 as the molecule, how does the IC50 read?
Answer: The IC50 was > 55.7 µM (inactive).

Question: Which IC50 does the source give for O=C(NC1CC1)c1cc2c(s1)-c1ccccc1OC2 here?
Answer: The IC50 was > 55.7 µM (inactive).

Question: How did the IC50 turn out when COC(=O)c1cccc(NC(=O)CSc2nc3cccnc3n2C)c1 was run?
Answer: Its IC50 is > 55.7 µM (inactive).

Question: For COC(=O)c1nn(-c2ccc3c(c2)CCN3C(C)=O)cc1O, which IC50 is on record?
Answer: Its IC50 is 9.87 µM.

Question: Which IC50 does the source give for Oc1ccc(-c2n[nH]c(=S)n2-c2ccc3c(c2)OCCO3)c(O)c1 here?
Answer: Its IC50 is > 55.7 µM (inactive).

Question: Which IC50 does the source give for Cc1nc(CNS(=O)(=O)c2ccc(Oc3ccccc3)cc2)cs1 here?
Answer: The IC50 was > 55.7 µM (inactive).

Question: With COc1ccc(-c2nn(C)c(=O)c3ccccc23)cc1NC(=O)COc1ccc(C)cc1 as the molecule, how does the IC50 read?
Answer: Its IC50 is “inactive”.

Question: With CN1/C(=C\C(=O)C[n+]2ccc(C(=O)c3ccccc3)cc2)C(C)(C)c2ccccc21 as the molecule, how does the IC50 read?
Answer: Its IC50 is > 55.7 µM (inactive).
